Like-named read-outs stand apart in the source and are kept apart here.
Experiments:
[1] = target: T1, LDH isoenzymes (LD5 in the presence of LD1) (Oryctolagus cuniculus, UniProt P13491); assay: Anionic amphiphiles tested for specific interaction with LDH isoenzymes (Table 2); assay type: biochemical
T1 construct: LD1 (LDHB tetramer) only as comparison
Experimental: (§1) The assay for LDH activity in both the absence and presence of surfactant was conducted as follows. […] The resulting solution contains approximately 5 units/ml. […] To the equilibrated solution […]. of the enzyme solution was added, and the cuvette was rapidly shaken while covering the top of the cuvette with a small piece of Parafilm® and placed back into the spectrophotometer.
(§2) Amphiphile solutions were prepared by weighing out a given amount of amphiphile, e.g., 100 mg, and preparing a stock solution in 30 mM sodium phosphate buffer in 100 ml. volumetric flask. Solutions of lower amphiphile concentration were prepared by making the appropriate dilutions from the stock solution.
A number of anionic amphiphiles were investigated for specific inactivation of LD5 in the presence of LD1 and these compounds are listed in Table 2.

[2] = target: T2, LD1 (beef heart) (Bos taurus, UniProt Q5E9B1); assay: LDH activity assay (pyruvate + NADH, absorbance decrease at 340 nm); assay type: biochemical; details: DSS 8.65 mM; CP 1 mM; FIG. 1B
T2 construct: Beef heart LDH (Sigma Chemical Co., Type III); purchased Sigma Chemical Co. Type III; host or cells: beef heart
T2 sequence (Q5E9B1 2-334): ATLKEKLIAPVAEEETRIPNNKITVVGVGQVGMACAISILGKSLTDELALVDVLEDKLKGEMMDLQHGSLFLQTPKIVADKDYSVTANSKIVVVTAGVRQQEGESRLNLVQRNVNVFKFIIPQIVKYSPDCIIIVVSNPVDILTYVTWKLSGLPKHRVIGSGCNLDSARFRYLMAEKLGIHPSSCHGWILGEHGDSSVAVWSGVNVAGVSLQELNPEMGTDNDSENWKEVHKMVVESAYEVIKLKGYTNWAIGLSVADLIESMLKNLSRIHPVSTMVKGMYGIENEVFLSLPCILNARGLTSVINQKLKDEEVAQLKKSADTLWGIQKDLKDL
Experimental: as §1, §2
(§3) The LDH enzyme assay (pyruvate+NADH→) is measured by the decrease in NADH absorbance at 340 nm with respect to time.

[3] = target: T3, LD5 (rabbit muscle) (Oryctolagus cuniculus, UniProt P13491); assay: as above; assay type: biochemical
T3 construct: rabbit muscle LDH (Sigma Chemical Co., Type V); purchased Sigma Chemical Co. Type V; host or cells: rabbit muscle
Experimental: as §1, §2, §3

[4] = target: LD1 (Sus scrofa, UniProt P00336); assay: LDH activity assay with amphiphile, LDH isoenzymes; assay type: biochemical, porcine; design: porcine LDH, LD1, LD2, LD3, LD4 and LD5 in the form of ammonium sulfate suspensions
LD1, sequence (P00336 2-334): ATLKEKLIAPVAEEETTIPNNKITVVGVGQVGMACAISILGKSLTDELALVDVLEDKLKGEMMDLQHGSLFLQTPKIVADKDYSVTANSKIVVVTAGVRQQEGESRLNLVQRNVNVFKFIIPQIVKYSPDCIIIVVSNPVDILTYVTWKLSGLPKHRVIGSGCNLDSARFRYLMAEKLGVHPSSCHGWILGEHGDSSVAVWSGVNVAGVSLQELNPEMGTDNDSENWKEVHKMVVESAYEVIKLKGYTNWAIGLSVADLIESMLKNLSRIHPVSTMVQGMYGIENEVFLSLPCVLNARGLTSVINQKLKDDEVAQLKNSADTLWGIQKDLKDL
Experimental: 3. Beef heart LDH (Sigma Chemical Co., Type III), rabbit muscle LDH (Sigma Chemical Co., Type V) and porcine LDH, LD1, LD2, LD3, LD4 and LD5 in the form of ammonium sulfate suspensions were used for these examples.
as §1, §2

[5] = test system: LD1 and LD5; assay: Screening of amphiphiles for ability to discriminate between LD1 and LD5
Experimental: A series of solutions was prepared covering a range of concentrations for each amphiphile to be tested. The activities of both LD1 and LD5 were determined in the presence of the various concentrations of each amphiphile and compared with enzyme activities in buffer (relative activity).
Enzyme activity in the presence and absence of amphiphile was measured by the following procedure: Stock solutions of NADH (4 mM) and pyruvate (40 mM) were prepared daily in 30 mM sodium phosphate buffer, pH 7.4. Enzyme solutions were prepared daily by withdrawing 5 μl of the stock enzyme solutions with a Hamilton syringe and diluting to 5 ml with 30 mM sodium phosphate buffer. (The resulting solution contains approximately 5 U of enzyme/ml.) The enzyme assay was run by pipetting 2.7 ml of buffer or buffer surfactant solution into a 10 mm path length quartz cuvette, and 100 μl each of NADH and pyruvate stock solutions were added. […] Enzyme solution was added with good mixing; the absorbance decrease at 340 nm was measured as a function of time. The rate of the reaction was determined by measuring the slope of the initial absorbance decrease, i.e., within the first 50 seconds of the reaction.

Structure (SMILES): CCCCCCCCCCOS(=O)(=O)[O-].[Na+] [DSS, sodium decylsulfate]
- Interaction (specific inactivation of LD5 in the presence of LD1) [1]: useful positive results
- Interaction (specific inactivation of LD5 in the presence of LD1) ([1]; listed as sodium decylsulfate): specific
- LD1 (beef heart) activity in the presence of amphiphile [2]: almost no loss in LD1 activity
- LD5 (rabbit muscle) activity in the presence of amphiphile ([3]; DSS 8.65 mM, CP 1 mM, FIG. 1A): rapidly inactivates
- time to complete inactivation of LD5 ([3]; anionic detergent (DSS), dead time of the instrument): ≤ 5 s
- LD1 activity in amphiphile solution compared with buffer ([4]; 9 mM DSS in 30 mM phosphate buffer, pH 7.4, FIG. 10): less than control LD1 activity in buffer
- isoenzyme activity beyond 9 mM amphiphile ([4]; DSS beyond 9 mM, FIG. 8): only LD1 continues to show activity
- remaining activity at 7000 µM ([4]; pH 7.4, read-out: LD1 activity remaining relative to buffer): ~65%
- discrimination of LDH isoenzymes [5]: excellent discriminators
- Effectiveness (LDH isoenzyme inhibition specificity, LD1 vs LD5) ([5]; range of amphiphile concentrations, relative activity vs buffer): ++

— patent US4250255A, “Assay method for isoenzyme activity” (Eastman Kodak Company, priority 1977, dated 1981)
